This is an account of results in article PMC7894603 (Science translational medicine, 2020).

In the experiment the test system is Kras and Trp53 mutant (KP) lung adenocarcinoma mouse model. Type of experiment: in vivo. The conditions noted are these: IT, urine 60-120 min; for change of KP/control reporter difference over 5, 7.5 and 10.5 weeks: MeanNormPARKP/MeanNormPARControl.

Take GGLGPKGQTGC [PP07]: the “change of KP/control reporter difference over 5, 7.5 and 10.5 weeks” value is “amplified over time”. As for GGSGSKIIGGGC [PP11], the “change of KP/control reporter difference over 5, 7.5 and 10.5 weeks” value is listed as “amplified over time”. The “urinary reporter in KP versus healthy mice” value (10.5 weeks after tumor initiation, mean-normalized PAR) was “most significantly enriched reporter”.
